This note sets out measurements from US3965109A, “Certain aryl amino pyridines” (priority 1971, dated 1976).

The subject of data set [1] is Puccinia recondita (wheat). In words: Fungicidal test against foliar disease A (foliage spray plus soil drench). In kind it is in vivo. The settings on record: 10 days.
The test system of data set [2] is Plasmopara viticola (vine). The data set can be described thus: Fungicidal test against foliar disease C (foliage spray plus soil drench). The settings on record: 10 days. In kind it is in vivo.
The test system of another data set is Uncinula necator (vine). In words: Fungicidal test against foliar disease D (foliage spray plus soil drench). In kind it is in vivo. The settings on record: 10 days.
In data set [3] the test system is Tetranychus telarius (red spider mites, adults). In words: Pest toxicity test. In kind it is in vivo. The settings on record: 0.1% by weight; French bean; 3 days.
Data set [4] concerns Tetranychus telarius (red spider mites, eggs). In words: Pest toxicity test. In kind it is in vivo. To be noted: 0.1% by weight; French bean; 3 days.
The next data set concerns Aphis fabae. The data set can be described thus: Pest toxicity test. Format: in vivo. To be noted: 0.1% by weight; broad bean; 2 days.
The subject of another data set is Megoura viceae. In words: Pest toxicity test. Format: in vivo. To be noted: 0.1% by weight; broad bean; 2 days.
Data set [5] relates to Aedes aegypti (mosquito larvae). In words: Pest toxicity test. In kind it is in vivo. To be noted: for Mortality grading (kill): 0.01% by weight, water, 1 day; for abnormal growth effects in larva of mosquitos: in vivo.
Data set [6] has as its system Aedes aegypti (mosquito adults). In words: Pest toxicity test. Format: in vivo. To be noted: 0.01% by weight; plywood; 1 day.
Data set [7] has as its system Musca domestica (houseflies). The data set can be described thus: Pest toxicity test, contact test. Format: in vivo. The settings on record: 0.1% by weight; milk/sugar; 2 days; flies sprayed directly.
For data set [8], the system named is Pieris brassicae (cabbage white caterpillars). In words: Pest toxicity test. In kind it is in vivo. The settings on record: 0.1% by weight, 2 days.
For data set [9], the system named is Plutella maculipennis (diamond back moth larvae). The data set can be described thus: Pest toxicity test. In kind it is in vivo.
Data set [10] has as its system Phaedon cochleariae (mustard beetles). The data set can be described thus: Pest toxicity test. In kind it is in vivo.
Data set [11] has as its system Agrobacterium tumifaciens. The data set can be described thus: Antibacterial agar test (B1). Format: cell-based. The settings on record: 50 ppm; 5 days.
In data set [12] the test system is Corynebacterium michiganense. In words: Antibacterial agar test (B2). The settings on record: 50 ppm; 5 days. In kind it is cell-based. The protocol: (§1) This Example illustrates the activity of compounds used as the active ingredients of compositions according to the invention against a variety of plant bacterial diseases and fungal post-harvest saprophytic diseases. In a test for such activity, 5 milligrams of the compound to be tested was dissolved or suspended in 10 ml. of acetone and enough of this solution or suspension was added to 18 ml. of nutrient agar (for the bacterial diseases) or 16 ml. of 2% malt agar (for the fungal diseases) to give a final concentration of 50 parts per million of the compound under test. A streptomycin preparation (2 ml. containing 100 units per ml.) was added to the malt agar to prevent bacterial contamination of the fungal tests.
(§2) The agar preparations were dried overnight in Petri dishes and inoculated the following morning with the bacterial or fungal diseases using a multipoint inoculator. The antibacterial activity was assessed after 5 days and the antifungal activity after 6 days. The results of the tests are set out in Table 16 (anti bacterial activity) and Table 17 (antifungal activity). The results are graded as in Example 1 above.

The subject of another data set is Xanthomonas malvacearum. The data set can be described thus: Antibacterial agar test (B3). Format: cell-based. The settings on record: 50 ppm; 5 days. Here is the method:
as §1, §2

The subject of another data set is Erwinia carotovora. The data set can be described thus: Antibacterial agar test (B4). In kind it is cell-based. The settings on record: 50 ppm; 5 days.
A further data set deals with Xanthomonas oryzae. In kind it is cell-based. The settings on record: 50 ppm; 5 days.
Another data set has as its system Pseudomonas syringae. The data set can be described thus: Antibacterial agar test (B6). Format: cell-based. The settings on record: 50 ppm; 5 days.
Another data set has as its system Streptomyces scabies. The data set can be described thus: Antibacterial agar test (B7). In kind it is cell-based. The settings on record: 50 ppm; 5 days.
The subject of data set [13] is Piricularia oryzae (rice). In kind it is in vivo. To be noted: 7 days.
In data set [14] the test system is Phytophthora infestans (tomato). Format: in vivo. To be noted: 50 ppm spray + 200 ppm soil drench; 3 days.
Data set [15] concerns Agriolimax reticulatus (slugs). The data set can be described thus: Molluscicidal activity test. In kind it is in vivo, Agriolimax reticulatus (Mull). To be noted: pellet with 4% by weight; 6 days; 10°C. Here is the method: A weighed sample of the compound under test was dissolved in 0.5 c.c. of an ethanol and acetone mixture 50:50 v/v). The solution was diluted with 0.5 cc water and poured onto a calf feeding pellet in a glass Petri dish. The pellet was then air dried for 24 hours. The weight of compound used was chosen so that the dried pellet contained 4% by weight of the active ingredient. Two replicates each consisting of a plastic Petri dish containing a pellet, 2 slugs, and a moistened filter paper to maintain a high relative humidity were used in each test. The dishes were left in a cold room (10°C.) After 6 days the kill was assessed.
The slugs used were Agriolimax reticulatus (Mull), and they had been starved for 24 hours before the commencement of the tests.

Setting [16] is: 0.1% by weight, mustard/paper, 2 days.
[17] abbreviates: 50 ppm spray + 200 ppm soil drench.

Where two headings read alike, the source gives them in different places.

`O=[N+]([O-])c1ccc(Nc2c(Cl)c(Cl)nc(Cl)c2Cl)c(C(F)(F)F)c1` [Compound 41, 4(4-Nitro-2-trifluoromethylanilino)-tetrachloropyridine]: in data set [1] (100 ppm spray and drench), the “Amount of disease grading, disease A (Table 4)” value is on record as 0 (61 to 100). For the same compound, in [2] (100 ppm spray and drench), the “Amount of disease grading, disease C (Table 4)” value is listed as 3 (0 to 5). In addition, the “Amount of disease grading, disease D (Table 4)” value with Uncinula necator (vine) (100 ppm spray and drench) was 3 (0 to 5). The “Mortality grading (kill)” value is reported as 3 (3 represents over 90% kill) in [3]; 3 (3 represents over 90% kill) in data set [4]; 0 (O represents less than 30% kill) in the data set with Aphis fabae; 0 (O represents less than 30% kill) in the data set with Megoura viceae; 3 (3 represents over 90% kill) in data set [5]; 0 (O represents less than 30% kill) in data set [6]. The entries for the “Mortality grading (kill)” value in data set [8], in [9] (setting [16]) and in [10] (setting [16]) were 0 (O represents less than 30% kill), 1 (1 represents 30 - 49% kill) and 2 (2 represents 60 - 90% kill), respectively. Also, the “Mortality grading (kill), contact test” value in data set [7] is on record as 2 (2 represents 60 - 90% kill). Moreover, the “Antibacterial activity grading B1” value in data set [11] was 3 (0 to 5). Further, the “Antibacterial activity grading B2” value in data set [12] is 0 (61 to 100). Besides, the “Antibacterial activity grading B3” value in the data set with Xanthomonas malvacearum is reported as 2 (6 to 25). In addition, the “Antibacterial activity grading B4” value with Erwinia carotovora is on record as 1 (26 to 60). Moreover, in the data set on Xanthomonas oryzae, the “Antibacterial activity grading B5” value is given as 1 (26 to 60). The “Antibacterial activity grading B6” value in the data set on Pseudomonas syringae is listed as 1 (26 to 60). Moreover, the “Antibacterial activity grading B7” value in the data set with Streptomyces scabies is on record as 0 (61 to 100).

As for `O=[N+]([O-])c1ccc(Nc2c(Cl)c(F)nc(F)c2Cl)c([N+](=O)[O-])c1` [Compound 1, 3,5-dichloro-2,6-difluoro-4(2,4-dinitroanilinopyridine], the “Mortality grading (kill)” value in data set [3] is listed as 3 (3 represents over 90% kill); in [4], 0 (O represents less than 30% kill); with Aphis fabae, 3 (3 represents over 90% kill); in the data set on Megoura viceae, 3 (3 represents over 90% kill); in data set [5], 0 (O represents less than 30% kill); in data set [6], 2 (2 represents 60 - 90% kill). The “Mortality grading (kill)” value in data set [9] (in vivo) and in [10] (in vivo) was 0 (key: O represents less than 30% kill; 1 represents 30 - 49% kill; 2 represents 60 - 90% kill; 3 represents over 90% kill; C indicates a chemosterilant effect.; A indicates an antifeeding effect.) in each case. In addition, the “abnormal growth effects in larva of mosquitos” value in data set [5] is recorded as “abnormal growth effects”. The “Mortality grading (kill), contact test” value in data set [7] was 0 (O represents less than 30% kill). In addition, the “Antibacterial activity grading B1” value in [11] is recorded as 3 (0 to 5). Besides, the “Antibacterial activity grading B2” value in data set [12] is given as 3 (0 to 5). In the data set with Xanthomonas malvacearum, the “Antibacterial activity grading B3” value was 3 (0 to 5). Besides, the “Antibacterial activity grading B4” value in the data set with Erwinia carotovora is reported as 3 (0 to 5). For the same compound, the “Antibacterial activity grading B5” value with Xanthomonas oryzae is listed as 3 (0 to 5). Moreover, the “Antibacterial activity grading B6” value with Pseudomonas syringae is on record as 3 (0 to 5). For the same compound, the “Antibacterial activity grading B7” value in the data set on Streptomyces scabies is reported as 3 (0 to 5).

For the compound `Fc1nc(F)c(Cl)c(Nc2c(F)c(F)c(F)c3c(F)c(F)c(F)c(F)c23)c1Cl` [Compound 20, 3,5-Dichloro-2,6-difluoro-4(1-heptafluoronaphthylamino)pyridine], the “Amount of disease grading, disease A” value in data set [1] (100 ppm spray and drench) is reported as 3 (0 to 5). Also, the “Amount of disease grading, disease C” value in [2] (100 ppm spray and drench) is on record as 3 (0 to 5). Also, the “Amount of disease grading, disease E” value in data set [13] (100 ppm spray and drench) is reported as 2 (6 to 25). The “Mortality grading (kill)” value in data set [3] is on record as 3 (3 represents over 90% kill); in data set [4], 3 (3 represents over 90% kill); in the data set on Aphis fabae, 2 (2 represents 60 - 90% kill); in the data set with Megoura viceae, 2 (2 represents 60 - 90% kill); in [5], 1 (1 represents 30 - 49% kill); in [6], 0 (O represents less than 30% kill). Further, the “Mortality grading (kill)” value in [8] was 0 (O represents less than 30% kill); in data set [9] (in vivo), 3 (key: O represents less than 30% kill; 1 represents 30 - 49% kill; 2 represents 60 - 90% kill; 3 represents over 90% kill; C indicates a chemosterilant effect.; A indicates an antifeeding effect.); in data set [10] (in vivo) it was 0 (key: O represents less than 30% kill; 1 represents 30 - 49% kill; 2 represents 60 - 90% kill; 3 represents over 90% kill; C indicates a chemosterilant effect.; A indicates an antifeeding effect.). Moreover, the “Mortality grading (kill), contact test” value in data set [7] is listed as 0 (O represents less than 30% kill). Also, in data set [11], the “Antibacterial activity grading B1” value is 0 (61 to 100). For the same compound, in data set [12], the “Antibacterial activity grading B2” value is on record as 3 (0 to 5). Further, the “Antibacterial activity grading B3” value with Xanthomonas malvacearum is 3 (0 to 5). In the data set on Erwinia carotovora, the “Antibacterial activity grading B4” value was 2 (6 to 25). The “Antibacterial activity grading B5” value in the data set on Xanthomonas oryzae is listed as 1 (26 to 60). In addition, in the data set with Pseudomonas syringae, the “Antibacterial activity grading B6” value was 2 (6 to 25). The “Antibacterial activity grading B7” value in the data set on Streptomyces scabies is on record as 2 (6 to 25).

Consider `O=[N+]([O-])c1ccc(Nc2c(Cl)c(Cl)nc(Cl)c2Cl)c([N+](=O)[O-])c1` [Compound 8, Tetrachloro-4(2,4-dinitroanilino)pyridine], for which the “Amount of disease grading, disease A” value in data set [1] (setting [17]) is 0 (61 to 100). For the same compound, the “Amount of disease grading, disease B” value in [14] was 3 (0 to 5). Also, the “Amount of disease grading, disease C” value in [2] (setting [17]) is reported as 3 (0 to 5). In addition, in the data set with Uncinula necator (vine) (setting [17]), the “Amount of disease grading, disease D” value is given as 0 (61 to 100). Moreover, the “Amount of disease grading, disease E” value in [13] (setting [17]) is recorded as 0 (61 to 100). Besides, the “Mortality grading (kill)” value was 3 (3 represents over 90% kill) in [3]; 3 (3 represents over 90% kill) in data set [4]; 0 (O represents less than 30% kill) with Aphis fabae; 0 (O represents less than 30% kill) in the data set with Megoura viceae; 0 (O represents less than 30% kill) in data set [5]; 0 (O represents less than 30% kill) in [6]. Moreover, the “Mortality grading (kill)” value in data set [8] was 0 (O represents less than 30% kill); in data set [9] (in vivo) it was 0 (key: O represents less than 30% kill; 1 represents 30 - 49% kill; 2 represents 60 - 90% kill; 3 represents over 90% kill; C indicates a chemosterilant effect.; A indicates an antifeeding effect.); in [10] (in vivo) it was 0 (key: O represents less than 30% kill; 1 represents 30 - 49% kill; 2 represents 60 - 90% kill; 3 represents over 90% kill; C indicates a chemosterilant effect.; A indicates an antifeeding effect.). Further, in data set [5], the “abnormal growth effects in larva of mosquitos” value is “abnormal growth effects”. In addition, the “Mortality grading (kill), contact test” value in [7] is 0 (O represents less than 30% kill). Also, the “% Kill of slugs” value in [15] was 100%.
